Results as given in ChEMBL document CHEMBL1649482, “Gene Context and DNA rearrangements in the carbapenemase locus of division II strains of Bacteroides fragilis” (2009).
≈ marks a conversion by molar mass, not a printed value.

Legend:
Assay type in all cases: functional
Bacteroides fragilis [1] = assay: Antimicrobial activity against Bacteroides fragilis MN5 after 24 hrs by agar dilution method; conditions: MN5, 24 h
Bacteroides fragilis [2] = assay: Antimicrobial activity against Bacteroides fragilis MN11 expressing imipenemase activity after 24 hrs by agar dilution method; conditions: MN11, 24 h
Bacteroides fragilis [3] = assay: Antimicrobial activity against Bacteroides fragilis MN32 imipenemase activity after 24 hrs by agar dilution method; conditions: MN32, 24 h
Bacteroides fragilis [4] = assay: Antimicrobial activity against Bacteroides fragilis MN35 after 24 hrs by agar dilution method; conditions: MN35, 24 h
Bacteroides fragilis [5] = assay: Antimicrobial activity against Bacteroides fragilis MN36 after 24 hrs by agar dilution method; conditions: MN36, 24 h
Bacteroides fragilis [6] = assay: Antimicrobial activity against Bacteroides fragilis MN41 after 24 hrs by agar dilution method; conditions: MN41, 24 h
Bacteroides fragilis [7] = assay: Antimicrobial activity against Bacteroides fragilis MN4a

`C[C@@H](O)[C@H]1C(=O)N2C(C(=O)O)=C(SCCNC=N)C[C@H]12` [IMIPENEM ANHYDROUS] was tested, and the MIC (Bacteroides fragilis [1]) was 0.25 µg/mL (≈ 0.835 µM), the MIC (Bacteroides fragilis [2]) was 256 µg/mL (≈ 855 µM) and the MIC (Bacteroides fragilis [3]) was 128 µg/mL (≈ 428 µM). It also gave an MIC (Bacteroides fragilis [4]) of 0.25 µg/mL (≈ 0.835 µM), an MIC (Bacteroides fragilis [5]) of 0.25 µg/mL (≈ 0.835 µM) and an MIC (Bacteroides fragilis [6]) of 0.25 µg/mL (≈ 0.835 µM). For the same compound, the MIC (Bacteroides fragilis [7]) was 0.5 µg/mL (≈ 1.67 µM).
